Experimental findings from PubChem BioAssay AID256 (DTP/NCI, 2004) are described below.

Where “and” joins values, the source holds several entries; their conditions need not be identical. Identical values can stand only once. Inconclusive results and toxic doses are left out.

This experiment deals with CD2F1 mice, L1210 leukemia ip, survival T/C. Put plainly: NCI In Vivo Anticancer Drug Screen. Data for tumor model L1210 Leukemia (intraperitoneal) in CD2F1 (CDF1) mice. To be noted: higher = longer survival. Put shortly:
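Tumor-bearing mice (transplanted tumor) were split into treated and vehicle control groups, and the measured endpoint of each treated group was divided by that of its vehicle controls.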

The mark [1] stands for this setting: endpoint: mean survival time, dose: 100.0 mg/kg/injection, schedule: Q01DX001 (ip), vehicle: Klucel (hydroxypropylcellulose) (HPC).
Where [2] appears, read: endpoint: mean survival time, dose: 200.0 mg/kg/injection, schedule: Q01DX001 (ip), vehicle: Klucel (hydroxypropylcellulose) (HPC).
Where [3] appears, read: endpoint: mean survival time, dose: 100.0 mg/kg/injection, schedule: Q04DX003 (ip), vehicle: saline.
Where [4] appears, read: endpoint: mean survival time, dose: 200.0 mg/kg/injection, schedule: Q04DX003 (ip), vehicle: saline.
Where [5] appears, read: endpoint: mean survival time, dose: 400.0 mg/kg/injection, schedule: Q04DX003 (ip), vehicle: saline.
Setting [6] is: endpoint: mean survival time, dose: 25.0 mg/kg/injection, schedule: Q01DX009 (ip), vehicle: saline with Tween-80.
Where [7] appears, read: endpoint: mean survival time, dose: 50.0 mg/kg/injection, schedule: Q01DX009 (ip), vehicle: saline with Tween-80.
Setting [8] is: endpoint: mean survival time, dose: 100.0 mg/kg/injection, schedule: Q01DX009 (ip), vehicle: saline with Tween-80.
Where [9] appears, read: endpoint: mean survival time, dose: 100.0 mg/kg/injection, schedule: Q01DX001 (ip), vehicle: saline with Tween-80.
Where [10] appears, read: endpoint: mean survival time, dose: 200.0 mg/kg/injection, schedule: Q01DX001 (ip), vehicle: saline with Tween-80.
[11] abbreviates: endpoint: mean survival time, dose: 400.0 mg/kg/injection, schedule: Q01DX001 (ip), vehicle: saline with Tween-80.
[12] abbreviates: endpoint: median survival time, dose: 25.0 mg/kg/injection, schedule: Q01DX005 (ip), vehicle: water.
[13] abbreviates: endpoint: median survival time, dose: 50.0 mg/kg/injection, schedule: Q01DX005 (ip), vehicle: water.
Setting [14] is: endpoint: median survival time, dose: 100.0 mg/kg/injection, schedule: Q01DX005 (ip), vehicle: water.
[15] abbreviates: endpoint: mean survival time, dose: 100.0 mg/kg/injection, schedule: Q04DX003 (ip), vehicle: saline with Tween-80.
Where [16] appears, read: endpoint: mean survival time, dose: 200.0 mg/kg/injection, schedule: Q01DX009 (ip), vehicle: saline with Tween-80.
[17] abbreviates: endpoint: mean survival time, dose: 200.0 mg/kg/injection, schedule: Q04DX003 (ip), vehicle: saline with Tween-80.
Where [18] appears, read: endpoint: mean survival time, dose: 400.0 mg/kg/injection, schedule: Q01DX009 (ip), vehicle: saline with Tween-80.
Setting [19] is: endpoint: mean survival time, dose: 400.0 mg/kg/injection, schedule: Q04DX003 (ip), vehicle: saline with Tween-80.
[20] abbreviates: endpoint: mean survival time, dose: 25.0 mg/kg/injection, schedule: Q04DX003 (ip), vehicle: saline with Tween-80.
The mark [21] stands for this setting: endpoint: mean survival time, dose: 25.0 mg/kg/injection, schedule: Q01DX001 (ip), vehicle: saline with Tween-80.
[22] abbreviates: endpoint: mean survival time, dose: 50.0 mg/kg/injection, schedule: Q01DX001 (ip), vehicle: saline with Tween-80.
Setting [23] is: endpoint: mean survival time, dose: 100.0 mg/kg/injection, schedule: Q01DX009 (ip), vehicle: saline.

For `NC1CCCCC1N.O=C([O-])c1ccc(N=Nc2cccc([N+](=O)[O-])c2)cc1O.O=C([O-])c1ccc(N=Nc2cccc([N+](=O)[O-])c2)cc1O.[Pt+4]`, the T/C reads like this: (endpoint: median survival time, dose: 3.12 mg/kg/injection, schedule: Q04DX003 (ip), vehicle: saline with Tween-80) 150 % of control and 301 % of control; (endpoint: median survival time, dose: 6.25 mg/kg/injection, schedule: Q04DX003 (ip), vehicle: saline with Tween-80) 190 % of control and 247 % of control; (endpoint: median survival time, dose: 12.5 mg/kg/injection, schedule: Q04DX003 (ip), vehicle: saline with Tween-80) 361 % of control and 375 % of control; (endpoint: median survival time, dose: 50.0 mg/kg/injection, schedule: Q04DX003 (ip), vehicle: saline with Tween-80) 89 % of control.
Regarding `CC(=O)C1=C(O)C(Cc2ccccc2)NC1=O` (stereo not given), the T/C is, setting by setting: under setting [1], 98 % of control; under setting [2], 102 % of control; (endpoint: mean survival time, dose: 400.0 mg/kg/injection, schedule: Q01DX001 (ip), vehicle: Klucel (hydroxypropylcellulose) (HPC)) 102 % of control.
Consider `Cc1noc(/N=C/c2cccc(Cl)c2)c1C`, for which the T/C is 96 % of control under setting [3], 101 % of control under setting [4] and 101 % of control under setting [5].
Take `COc1ccc(C=Nc2ccc3c(c2)OCO3)cc1Br`: the T/C runs as follows: under setting [6], 98 % of control; under setting [7], 97 % of control; under setting [8], 103 % of control.
As to `C(=NCC1CCC(CN=Cc2ccco2)CC1)c1ccco1` (stereo not given), the T/C reads like this: under setting [9], 107 % of control; under setting [10], 101 % of control; under setting [11], 101 % of control.
With `COc1ccc(C[C@H](N)C(=O)NC2C(CO)OC(n3cnc4c(N(C)C)ncnc43)C2O)cc1` (stereo not given in full), the T/C is, setting by setting: under setting [12], 104 % of control; under setting [13], 111 % of control; under setting [14], 100 % of control.
As for `Cc1ccc(S(=O)(=O)OC2C(COCC(=O)O)OC3OC(C)(C)OC32)cc1` (stereo not given), the T/C is 95 % of control under setting [8]; 98 % of control under setting [15]; 93 % of control under setting [16]; 101 % of control under setting [17]; 90 % of control under setting [18]; 93 % of control under setting [19].
With `COc1cc(C2c3cc4c(cc3[C@@H](OC)[C@H]3COC(=O)C23)OCO4)cc(OC)c1O` (stereo not given in full), the T/C (endpoint: median survival time, dose: 1.25 mg/kg/injection, schedule: Q01DX009 (ip), vehicle: saline with Tween-80) was 108 % of control; the T/C (endpoint: median survival time, dose: 2.5 mg/kg/injection, schedule: Q01DX009 (ip), vehicle: saline with Tween-80) was 104 % of control; the T/C (endpoint: median survival time, dose: 5.0 mg/kg/injection, schedule: Q01DX009 (ip), vehicle: saline with Tween-80) is 105 % of control; the T/C (endpoint: median survival time, dose: 10.0 mg/kg/injection, schedule: Q01DX009 (ip), vehicle: saline with Tween-80) is 103 % of control.
Take `Cc1cccc(Cl)c1NC1=NCCO1`: the T/C reads like this: (endpoint: mean survival time, dose: 6.25 mg/kg/injection, schedule: Q04DX003 (ip), vehicle: saline with Tween-80) 100 % of control; (endpoint: mean survival time, dose: 12.5 mg/kg/injection, schedule: Q04DX003 (ip), vehicle: saline with Tween-80) 100 % of control; under setting [20], 111 % of control.
As to `C=CCC(C#N)(CC=C)C(=O)OCC`, the T/C (endpoint: mean survival time, dose: 50.0 mg/kg/injection, schedule: Q01DX001 (ip), vehicle: Klucel (hydroxypropylcellulose) (HPC)) was 102 % of control; the T/C under setting [1] is 96 % of control; the T/C under setting [2] was 102 % of control.
In the case of `CC=C1C=C(C(C)(C)C)C(=O)C(C(C)(C)C)=C1`, the T/C runs as follows: (endpoint: mean survival time, dose: 25.0 mg/kg/injection, schedule: Q01DX009 (ip), vehicle: Klucel (hydroxypropylcellulose) (HPC)) 90 % of control; (endpoint: mean survival time, dose: 50.0 mg/kg/injection, schedule: Q01DX009 (ip), vehicle: Klucel (hydroxypropylcellulose) (HPC)) 102 % of control; (endpoint: mean survival time, dose: 100.0 mg/kg/injection, schedule: Q01DX009 (ip), vehicle: Klucel (hydroxypropylcellulose) (HPC)) 98 % of control.
For the molecule `Cc1cn(C2CC(O)C(CO)O2)c(=O)nc1N1CCCC1` (stereo not given), the T/C by setting is: (endpoint: median survival time, dose: 12.5 mg/kg/injection, schedule: Q01DX005 (ip), vehicle: water) 103 % of control; under setting [12], 108 % of control; under setting [13], 102 % of control; under setting [14], 101 % of control; (endpoint: median survival time, dose: 200.0 mg/kg/injection, schedule: Q01DX005 (ip), vehicle: water) 102 % of control.
Turning to `FC(F)(F)c1cccc(NC2=NCCS2)c1`, the T/C runs as follows: (endpoint: mean survival time, dose: 12.5 mg/kg/injection, schedule: Q01DX001 (ip), vehicle: saline with Tween-80) 106 % of control; under setting [21], 110 % of control; under setting [22], 101 % of control; under setting [9], 110 % of control; under setting [10], 106 % of control; under setting [11], 105 % of control.
With `CCCOC(=O)c1ccc(NC(=O)Nc2ccc(C(=O)OCC)cc2)cc1`, the T/C is 96 % of control under setting [21]; 88 % of control under setting [6]; 92 % of control and 95 % of control (endpoint: mean survival time, dose: 25.0 mg/kg/injection, schedule: Q04DX002 (ip), vehicle: saline with Tween-80); 102 % of control under setting [20]; 93 % of control under setting [22]; 88 % of control and 94 % of control under setting [7]. Also, the T/C is 92 % of control and 98 % of control (endpoint: mean survival time, dose: 50.0 mg/kg/injection, schedule: Q04DX002 (ip), vehicle: saline with Tween-80); 92 % of control (endpoint: mean survival time, dose: 50.0 mg/kg/injection, schedule: Q04DX003 (ip), vehicle: saline with Tween-80); 87 % of control and 93 % of control under setting [9]; 91 % of control and 96 % of control under setting [8]; 91 % of control and 94 % of control under setting [15]; 86 % of control under setting [10]. Further, the T/C reads like this: (endpoint: mean survival time, dose: 200.0 mg/kg/injection, schedule: Q04DX002 (ip), vehicle: saline with Tween-80) 90 % of control; under setting [17], 86 % of control; (endpoint: mean survival time, dose: 400.0 mg/kg/injection, schedule: Q04DX002 (ip), vehicle: saline with Tween-80) 90 % of control; under setting [19], 88 % of control.
For `ClC1=C(Cl)C2(Cl)C3C4CCC(C4)C3C1(Cl)C2(Cl)Cl` (stereo not given), the T/C reads like this: under setting [8], 95 % of control and 107 % of control; under setting [16], 93 % of control and 111 % of control; under setting [18], 96 % of control and 105 % of control.
`OC1OCCOC1O` (stereo not given): the T/C was 114 % of control under setting [23]; 99 % of control under setting [3]; 114 % of control (endpoint: mean survival time, dose: 200.0 mg/kg/injection, schedule: Q01DX009 (ip), vehicle: saline); 99 % of control under setting [4]; 121 % of control (endpoint: mean survival time, dose: 400.0 mg/kg/injection, schedule: Q01DX009 (ip), vehicle: saline); 115 % of control under setting [5].
With `CCCC1NNC(CCC)NN1` (stereo not given), the T/C (endpoint: mean survival time, dose: 75.0 mg/kg/injection, schedule: Q01DX001 (ip), vehicle: saline) is 102 % of control.
As for `CCc1c(O)c2c(c(O)c1C(C)=O)C(=O)c1c(cc(O)c(C(=O)O)c1C(=O)O)C2=O`, the T/C was 108 % of control (endpoint: mean survival time, dose: 50.0 mg/kg/injection, schedule: Q01DX009 (ip), vehicle: saline) and 116 % of control under setting [23].
As for `Cc1noc(N)c1C`, the T/C was 92 % of control under setting [7], 95 % of control under setting [8] and 92 % of control under setting [16].
